Data as given in patent US12037415B2, “Peptide and pharmaceutical composition for treating an eye disease comprising the same as an active pharmaceutical ingredient” (YuYu Pharma, Inc., priority 2017, dated 2024).
Non-standard residues stand in square brackets, D forms with d. Residues, ends and D or L forms follow the SMILES beside them. Hyp = O=C(O)[C@@H]1C[C@@H](O)CN1

Legend:
[1] = system: rats with dry eye syndrome (extraorbital lacrimal gland excision, ELGE); test: Amount of tear secretion (Schirmer test, cobalt chloride paper) in rats with ELGE-induced dry eye syndrome; format: in vivo, rat; details: 0.3% solution (DS 3%), administration for 14 days; study of YDE-001 to YDE-028
From the text: In order to evaluate the eye protection effect on dry eye syndrome by YDE-001 to YDE-028 prepared in Working Example 1, a total of 320 Sprague-Dawley-type male rats (OrientBio, Seungnam, Korea) were adapted for 7 days. Thereafter, dry eye syndrome was induced in 264 test rats through extraorbital lacrimal gland excision (hereinafter, ELGE). 8 test rats without the eye abnormality were subjected to a sham operation as a control group.
The rats were systemically anesthetized by inhaling a mixed gas of 2% to 3% of isoflurane (Hana Pharm. Co., Hwasung, Korea), 70% of N2O, and 28.6% of O2 using a rodent anesthesia machine (Surgivet, Waukesha, Wis., USA) and a ventilator (Model 687, Harvard Apparatus, Cambridge, UK). Thereafter, the extraorbital lacrimal gland located in the subdermal area above the masseter muscle and under the optic nerve was excised through a transverse incision in a size of 10 mm on the anterior part of the left ear tragus. The skin was sutured by a general method. […] After 6 days following the ELGE operation, confirmation was performed through the Schirmer test by measuring the amount of tear secretion whether dry eye syndrome had been induced. Meanwhile, each rat of the control group with the sham operation was checked for the presence and location of the extraorbital lacrimal gland through a skin incision, and the skin was then sutured without the excision thereof (FIG. 134).
In addition, in order to evaluate the eye protection effect on dry eye syndrome by YDE-029 to YDE-043 prepared in Working Example 1, a total of 200 Sprague-Dawley-type male rats (OrientBio, Seungnam, Korea) were adapted for 7 days. Dry eye syndrome was induced in 165 test rats through the ELGE. 8 test rats without the eye abnormality were subjected to the sham operation as a control group. The ELGE was carried out as described above.
(§1) For YDE-001 to YDE-028, YY-102 and the 28 YDE-series were each dissolved in physiological saline at a concentration of 3 mg/ml and administered at a dose of 5 μl/eye at 9:30 am and 3:30 pm daily for 14 days after 7 days from the ELGE operation for a total of 28 times. The DS solution was dissolved in physiological saline at a concentration of 30 mg/ml and administered at a dose of 5 μl/eye twice a day for 14 days after 7 days from the ELGE operation for a total of 28 times. For the sham control and the ELGE control groups, the same stimulation as the administration was applied. In order to prevent excessive eye dryness, the same volume of physiological saline was applied in the same manner in place of the test substances.
as §1, with “Further, For YDE-029” for “For YDE-001”, “Further, For YDE-029 to YDE-043,” for “For YDE-001 to YDE-028,”, “YDE-029 to YDE-043, YY-102 and” for “YDE-001 to YDE-028, YY-102 and”, “and the 15 YDE-series were” for “and the 28 YDE-series were”, “the test substances (FIG. 137).” for “the test substances.”
After 6 days from the ELGE surgery, the changes in the amount of tear secretion were measured at day 7 and day 14 after the administration of YDE-001 to YDE-043. The amount of tear secretion was measured by the […] travel distance of tears absorbed by cobalt chloride paper in a size of 1×15 mm (Toyo Roshi Kaisha, Japan).
The cobalt chloride paper was placed in the lateral canthus of a rat for 60 seconds to absorb tears (FIG. 139). The length of the area absorbed from the corner of the cobalt chloride paper was measured with an electronic digital caliper (Mytutoyo, Tokyo, Japan) (FIG. 138).

[2] = system: cornea of rats with dry eye syndrome (ELGE); test: Corneal permeability of fluorescent dye (corneal damage) in rats with ELGE-induced dry eye syndrome; format: in vivo, rat; details: 0.3% solution, day 14 after the administration, study of YDE-001 to YDE-028 (Table 16)
In short: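 Dry eye induced in male Sprague-Dawley rats by extraorbital lacrimal gland excision, confirmed by Schirmer test. From day 7 post-surgery, compounds at 3 mg/ml in saline given topically 5 μl/eye twice daily. After 14 doses, 1% fluorescein applied for 1 h under anesthesia, with corneal permeability scored by slit-lamp 12–24 h later.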

[3] = Stability in aqueous solution, amount of related substances under long-term storage conditions; format: physicochemical; details: glass vial, 25° C., 75% RH
In short: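 Test substances dissolved in water at 1 mg/ml, sealed in glass vials and held at 25° C./75% RH. Related substances measured at 1, 2, 4, 8 and 12 weeks.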

## CC(C)C[C@H](NC(=O)[C@H](Cc1c[nH]cn1)NC(=O)[C@H](CC(=O)O)NC(=O)[C@H](CCC(N)=O)NC(=O)CNC(=O)[C@@H]1C[C@@H](O)CN1)C(=O)N[C@@H](C)C(=O)NCC(=O)N1CCC[C@H]1C(=O)N[C@@H](CCCCN)C(=O)O [YDE-022, HyP-Gly-Gln-Asp-His-Leu-Ala-Gly-Pro-Lys] (H-[Hyp]GQDHLAGPK-OH)
[1]
  Amount of tear secretion as compared with the ELGE control group: did not show any significant changes
[2]
  Permeability of fluorescent dye (%): 47.82 ± 10.01%
[3]
  Amount of related substances (%; after 12 weeks): 19.23%

## CC(C)C[C@H](NC(=O)[C@H](Cc1ccccc1)NC(=O)[C@H](CC(=O)O)NC(=O)[C@H](CCC(N)=O)NC(=O)CNC(=O)[C@@H]1C[C@@H](O)CN1)C(=O)N[C@@H](C)C(=O)NCC(=O)N1CCC[C@H]1C(=O)N[C@@H](CCCCN)C(=O)O [YDE-019, HyP-Gly-Gln-Asp-Phe-Leu-Ala-Gly-Pro-Lys] (H-[Hyp]GQDFLAGPK-OH)
[1]
  Amount of tear secretion as compared with the ELGE control group: did not show any significant changes
[2]
  Permeability of fluorescent dye (%): 40.39 ± 12.57%
[3]
  Amount of related substances (%; after 12 weeks): 13.43%
